Experimental data reported in ChEMBL document CHEMBL1201862, “PubChem BioAssay data set” (2004).
Calls of active or inactive are those of the source.

Tests used:
[1] = NIH3T3 cell viability loss – ATP luminescence, mouse fibroblasts, counter-screen, dose response (AID 2010); assay type: functional, cell-based;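 note: cells exposed to compound for about 90 hours before reading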
[2] = Trypanosoma cruzi growth suppression in host cells – NIH3T3 host cells, beta-gal luminescence, confirmation (AID 2044); assay type: functional, cell-based;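 note: intracellular parasites grown in NIH/3T3 mouse fibroblasts as host cells; luminescent beta-galactosidase reporter signal from transgenic T. cruzi replicating inside host cells; inhibitors lower the luminescence signal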
[3] = viability of uninfected HEp-2 cells – cell-based, HTS, cytotoxicity control for RSV inhibitor project, dose response (AID 2410); assay type: functional; conditions: human respiratory syncytial virus
[4] = target: Cytochrome P450 2C9 (Homo sapiens, UniProt P11712)
[5] = target: Cytochrome P450 2C19 (Homo sapiens, UniProt P33261); assay: Cytochrome panel assay with activity outcomes. Panel member name: p450-cyp2c19 Compounds with AC50 equal or less than 10 uM are considered active; assay type: functional
[6] = system: Streptococcus; assay: GAS UMAA2166 growth inhibition – luminescence, BacTiterGlo, counter-screen for streptokinase expression inhibitor project, dose response (AID 1915); assay type: functional, organism-based;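 note: potency for reduction of bacterial viability or growth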
[7] = system: Streptococcus sp. 'group A'; assay: Streptococcus pyogenes SK(-)GAS viability under kanamycin – luminescence, BacTiterGlo, confirmation, counter-screen for streptokinase expression inhibitor project, dose response (AID 1900); assay type: functional, organism-based
[8] = target: Cytochrome P450 3A4 (Homo sapiens, UniProt P08684);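 note: CYP3A4 tested as one member of a cytochrome P450 panel screen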
[9] = target: T1, Rac GTPase-activating protein 1 (Homo sapiens, UniProt Q9H0H5); assay: blockers of MgcRacGAP-driven Rac1 GTP hydrolysis – biochemical, ADP Hunter fluorescence, primary and confirmatory, confirmation (AID 624330); assay type: functional
T1 sequence (Q9H0H5 whole entry): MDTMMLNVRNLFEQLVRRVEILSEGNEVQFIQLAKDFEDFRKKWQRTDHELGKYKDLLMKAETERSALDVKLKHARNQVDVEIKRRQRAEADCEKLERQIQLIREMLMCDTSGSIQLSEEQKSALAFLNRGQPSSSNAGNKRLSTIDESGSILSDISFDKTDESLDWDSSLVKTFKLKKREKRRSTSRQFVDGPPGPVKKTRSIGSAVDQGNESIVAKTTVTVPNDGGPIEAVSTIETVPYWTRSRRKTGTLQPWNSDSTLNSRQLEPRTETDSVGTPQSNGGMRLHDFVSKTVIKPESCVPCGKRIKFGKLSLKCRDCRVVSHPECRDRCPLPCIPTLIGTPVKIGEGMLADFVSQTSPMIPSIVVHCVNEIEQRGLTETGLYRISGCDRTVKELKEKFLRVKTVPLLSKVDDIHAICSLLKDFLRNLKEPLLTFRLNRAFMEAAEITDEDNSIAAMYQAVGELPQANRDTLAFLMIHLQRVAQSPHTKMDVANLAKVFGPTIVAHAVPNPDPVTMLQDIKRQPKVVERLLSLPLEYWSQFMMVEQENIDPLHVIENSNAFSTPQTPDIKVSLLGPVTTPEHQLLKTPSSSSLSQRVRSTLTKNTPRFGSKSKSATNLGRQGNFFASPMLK

[10] = target: T2, Protein RecA (Mycobacterium tuberculosis, UniProt P9WHJ3); assay: Fluorescence Cell-Free Homogeneous Dose Retest to Identify Inhibitors of RecA-Intein Splicing Activity. [Related pubchem assays (depositor defined):AID2097, AID2223, AID489010, AID492950]; assay type: functional
T2 sequence (P9WHJ3 whole entry): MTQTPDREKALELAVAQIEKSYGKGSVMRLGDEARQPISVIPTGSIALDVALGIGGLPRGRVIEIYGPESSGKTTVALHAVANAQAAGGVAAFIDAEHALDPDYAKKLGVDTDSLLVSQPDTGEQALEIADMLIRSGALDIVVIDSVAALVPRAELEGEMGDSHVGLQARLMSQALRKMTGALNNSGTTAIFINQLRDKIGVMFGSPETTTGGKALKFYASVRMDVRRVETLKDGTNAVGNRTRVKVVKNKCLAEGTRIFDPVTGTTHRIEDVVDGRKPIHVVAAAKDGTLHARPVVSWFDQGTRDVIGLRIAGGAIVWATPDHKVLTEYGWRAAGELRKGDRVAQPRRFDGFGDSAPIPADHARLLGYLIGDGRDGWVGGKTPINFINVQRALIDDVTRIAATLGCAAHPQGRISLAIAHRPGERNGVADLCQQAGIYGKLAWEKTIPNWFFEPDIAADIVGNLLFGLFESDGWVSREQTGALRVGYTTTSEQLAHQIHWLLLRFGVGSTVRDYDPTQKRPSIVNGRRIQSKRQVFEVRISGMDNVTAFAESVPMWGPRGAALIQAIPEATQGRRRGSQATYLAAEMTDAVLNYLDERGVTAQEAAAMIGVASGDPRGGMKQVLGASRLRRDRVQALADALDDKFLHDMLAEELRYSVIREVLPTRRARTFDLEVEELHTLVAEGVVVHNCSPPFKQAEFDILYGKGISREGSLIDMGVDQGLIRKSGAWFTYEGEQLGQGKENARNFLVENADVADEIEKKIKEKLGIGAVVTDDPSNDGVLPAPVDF

Chain of Cytochrome P450 3A4 (P08684 whole entry): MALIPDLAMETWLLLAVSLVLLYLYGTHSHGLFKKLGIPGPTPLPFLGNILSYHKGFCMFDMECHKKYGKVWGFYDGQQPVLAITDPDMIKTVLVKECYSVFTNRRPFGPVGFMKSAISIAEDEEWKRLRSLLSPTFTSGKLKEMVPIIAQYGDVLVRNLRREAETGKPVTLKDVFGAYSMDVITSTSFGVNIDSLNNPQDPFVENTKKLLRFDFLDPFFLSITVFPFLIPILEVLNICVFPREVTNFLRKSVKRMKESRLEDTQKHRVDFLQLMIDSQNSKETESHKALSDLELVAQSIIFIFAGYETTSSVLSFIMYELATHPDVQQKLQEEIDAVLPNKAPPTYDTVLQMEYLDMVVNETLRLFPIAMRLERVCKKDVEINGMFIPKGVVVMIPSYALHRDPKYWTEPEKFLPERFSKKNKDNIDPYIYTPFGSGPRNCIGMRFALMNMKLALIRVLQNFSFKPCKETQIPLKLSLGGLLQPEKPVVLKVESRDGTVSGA
Chain of Cytochrome P450 2C9 (P11712 whole entry): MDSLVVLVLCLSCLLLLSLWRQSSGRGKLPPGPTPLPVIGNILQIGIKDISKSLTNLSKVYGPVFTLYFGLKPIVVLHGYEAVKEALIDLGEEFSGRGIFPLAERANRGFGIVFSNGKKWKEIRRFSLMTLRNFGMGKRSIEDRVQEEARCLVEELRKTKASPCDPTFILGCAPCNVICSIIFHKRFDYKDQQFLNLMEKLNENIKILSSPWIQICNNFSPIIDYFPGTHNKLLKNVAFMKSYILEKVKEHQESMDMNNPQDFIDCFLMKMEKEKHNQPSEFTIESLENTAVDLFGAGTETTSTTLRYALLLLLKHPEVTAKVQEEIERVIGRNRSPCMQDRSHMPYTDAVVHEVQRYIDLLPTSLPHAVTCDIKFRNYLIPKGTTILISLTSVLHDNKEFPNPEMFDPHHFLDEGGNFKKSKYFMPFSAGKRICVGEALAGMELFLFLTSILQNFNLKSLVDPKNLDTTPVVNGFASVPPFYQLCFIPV
Chain of Cytochrome P450 2C19 (P33261 whole entry): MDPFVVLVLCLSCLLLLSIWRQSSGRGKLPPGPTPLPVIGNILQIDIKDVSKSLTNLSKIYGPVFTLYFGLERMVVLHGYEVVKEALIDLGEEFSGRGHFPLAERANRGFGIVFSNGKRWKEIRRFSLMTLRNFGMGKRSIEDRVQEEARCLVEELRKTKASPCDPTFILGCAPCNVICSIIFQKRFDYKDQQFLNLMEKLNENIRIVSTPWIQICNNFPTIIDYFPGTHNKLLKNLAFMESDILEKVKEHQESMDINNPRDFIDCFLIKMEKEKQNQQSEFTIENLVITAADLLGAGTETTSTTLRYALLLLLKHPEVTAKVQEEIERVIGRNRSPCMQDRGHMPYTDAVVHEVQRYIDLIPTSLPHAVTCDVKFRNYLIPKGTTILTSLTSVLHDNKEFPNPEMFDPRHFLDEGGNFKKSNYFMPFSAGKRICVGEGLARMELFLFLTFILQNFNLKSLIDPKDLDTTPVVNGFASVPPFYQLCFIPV

Cc1ccc(O)c(C(=O)c2cc(C(=O)NCCc3ccccc3)c(=O)n(CCc3ccccc3)c2)c1
EC50 [1]: > 30 µM (not active)
EC50 [2]: 2.02 µM (active)

O=C(COC(=O)c1c2ccccc2cc2ccccc12)NCC(F)(F)F
CC50 [3]: 23.6 µM (active)

CCN(C(=O)CSc1nnc(Cn2nnc3ccccc32)o1)c1nc(-c2ccccc2)cs1
CC50 [3]: 26.4 µM (active)

O=C(CN1CCN(c2nc(-c3ccccc3)cs2)CC1)NCc1ccc2c(c1)OCO2
CC50 [3]: 11 µM (active)

O=C(O)[C@H](Cc1cc(I)c(O)c(I)c1)C1CCCCC1
AC50 [4]: 3.16 µM (inconclusive)
AC50 ([5]; read-out: AC50): 2 µM (inconclusive)

CCC(C#CCN1CCCCC1)(CC)OCCC#N
AC50 [4]: 0.355 µM (inconclusive)

COc1ccc2c(c1OC)C(=O)OC2Nc1ncccc1C (stereo not given)
AC50 ([5]; read-out: AC50): 39.8 µM (inconclusive)

CCOC(=O)c1cnc2cc(-c3ccc(C(C)(C)C)cc3)nn2c1N
AC50 [4]: 3.16 µM (inconclusive)

COc1ccc(CSCCN=C(S)Nc2ccccc2)cc1Cl
EC50 [6]: > 150 µM (not active)
EC50 [7]: 18.5 µM (active)

COc1ccc(C(=O)CC(=O)C(=O)Nc2ccccc2C(F)(F)F)cc1
EC50 [6]: 8.59 µM (active)
EC50 [7]: 3.52 µM (active)

CS(=O)(=O)N1CCN(c2ccc([N+](=O)[O-])c(NCc3ccccc3)c2)CC1
AC50 [8]: 31.6 µM (inconclusive)
AC50 ([5]; read-out: AC50): 31.6 µM (inconclusive)

Cc1ccc2nc(NC(=O)COC(=O)CSc3nc(C)cc(C)n3)sc2c1
AC50 ([5]; read-out: AC50): 5.01 µM (inconclusive)

Cc1ccc(-n2cnc3cc(NCc4cccs4)ccc32)cc1
CC50 [3]: 25.3 µM (active)

COc1ccc(NC(=O)CSc2nc(-c3ccc(C)cc3)cc(C(F)(F)F)c2C#N)cc1
AC50 ([5]; read-out: AC50): 20 µM (inconclusive)

COc1cc(/C=C/CN2CCC(CO)(CC3CCCCO3)CC2)ccc1O (stereo not given)
IC50 [9]: 91.2 µM (active)

C=CCOC(=O)C1=C(C)NC(=O)NC1c1ccc(OC(=O)c2ccco2)c(OC)c1 (stereo not given)
EC50 [10]: 18 µM (active)

CCCC(=O)Nc1nc(C(=O)OCC)cs1
AC50 ([5]; read-out: AC50): 39.8 µM (inconclusive)

CCc1cccc(Nc2c([N+](=O)[O-])nn(-c3ccc4c(c3)OCCO4)[n+]2[O-])c1
EC50 [1]: > 60 µM (inconclusive)
EC50 [2]: 0.272 µM (active)

O=C(CN1CCN(C(c2ccccc2)c2ccccc2)CC1)N1CCN(c2ccccc2)CC1
CC50 [3]: 23.9 µM (active)

COc1ccc(NC2CCCN(C(=O)c3oc(C)cc3C)C2)cc1OC (stereo not given)
IC50 [9]: 159 µM (active)

Cc1cc(C)c2c(CN3CCN(Cc4ccc5c(c4)OCO5)CC3)cc(=O)oc2c1
CC50 [3]: 16.8 µM (active)

COc1ncc2nc(CCc3ccccc3)c(=O)n(C3CC3)c2n1
AC50 [8]: 31.6 µM (inconclusive)

O=C(NC(Nc1cc(C(F)(F)F)ccc1Cl)C(=O)c1ccccc1)c1ccccc1 (stereo not given)
EC50 [1]: > 30 µM (not active)
EC50 [2]: 2.17 µM (active)

CCCc1nc2c(c(=O)c3ccccc3n2C)c(=O)n1-c1cc(C)cc(C)c1
CC50 [3]: > 50 µM (active)

COC(=O)C(O)(c1c(C)[nH]c2ccccc12)C(F)(F)F (stereo not given)
AC50 [8]: 22.4 µM (inconclusive)
AC50 [4]: 3.16 µM (inconclusive)

COc1ccc(N(C(=O)Cn2nnc3ccccc32)C2(C(=O)NC3CCCC3)CCCCC2)cc1
AC50 [4]: 22.4 µM (inconclusive)
AC50 ([5]; read-out: AC50): 14.1 µM (inconclusive)

COCCNc1nc(-c2ccc(C(=O)N(C)C)cc2)nc2ccccc12
AC50 [8]: 15.8 µM (inconclusive)

Cc1nnc(SCC2=C(C(=O)O)N3C(=O)C(NC(=O)C(C)n4nc(C(F)(F)F)cc4C)C3SC2)s1 (stereo not given)
EC50 [6]: 0.421 µM (active)
EC50 [7]: 0.201 µM (active)

Cc1nc2cnc(Oc3cccc(Cl)c3)nc2n(CCC#N)c1=O
AC50 [4]: 39.8 µM (inconclusive)

Cc1ccc(CN2CCN(CC(=O)N=Nc3c(O)[nH]c4ccccc34)CC2)cc1
EC50 [1]: > 60 µM (not active)
EC50 [2]: 1.08 µM (active)

Cc1ccc(-c2csc(NCCc3nc4cc(Cl)c(Cl)cc4n3CCCO)n2)cc1
CC50 [3]: 28.9 µM (active)

COCC(C)n1c(C)cc(C(=O)COC(=O)c2c(C)nn(-c3ccccc3)c2C)c1C (stereo not given)
CC50 [3]: 29.2 µM (active)

Cc1nn2cc(-c3ccc(N)cc3)nc2s1
IC50 [9]: 110 µM (active)

COc1ccc(C(=O)CN2C(=O)NC(C)(c3ccccc3)C2=O)cc1OC (stereo not given)
AC50 [8]: 4.47 µM (inconclusive)
AC50 ([5]; read-out: AC50): 39.8 µM (inconclusive)

Nc1ncnc2c1ncn2[C@@H]1O[C@@H](C(=O)NC2CC2)[C@H](O)[C@@H]1O
AC50 [8]: 1 µM (inconclusive)

C/C(CCN1CCc2nc(-c3ccccc3)c(-c3ccccc3)cc2C1)=N\OC[C@@H](O)[C@@H]1O[C@@H]2OC(C)(C)O[C@@H]2[C@H]1O
AC50 [8]: 3.98 µM (inconclusive)

CNc1nc(-c2ccc3c(c2)CCN3C(=O)c2ccccc2C)cs1
CC50 [3]: 14.9 µM (active)

Cn1c(O)c(C(c2ccccn2)c2c(O)n(C)c(=S)n(C)c2=O)c(=O)n(C)c1=S
AC50 [4]: 1.58 µM (inconclusive)

O=C(COc1ccccc1)Nc1ccc2[nH]c(O)nc2c1
CC50 [3]: 26 µM (active)

COc1ccc(NC(S)=NC(=NCS(=O)(=O)c2ccccc2)c2ccccc2)cc1
CC50 [3]: 24.6 µM (active)

N=C(N)CCNC(=O)[C@@H]1CCC(N)=N1.O=S(=O)(O)O
AC50 [5]: inconclusive

O=C1[C@H]2[C@@H](c3ccc(F)cc3)N3C(=O)N(c4ccc(C(F)(F)F)cc4)C(=O)[C@@]3(Cc3ccccc3)[C@H]2C(=O)N1C1CCCCC1
CC50 [3]: > 50 µM (active)

O=C(NCc1ccco1)c1nc(O)c2nnn(Cc3cccc(Cl)c3)c2n1
AC50 [4]: 15.8 µM (inconclusive)

COc1ccccc1N1CCN(CC(=O)NCC2CCCO2)CC1 (stereo not given)
IC50 [9]: 51.9 µM (active)

Cc1[nH]nc(-c2ccc(OCc3cnn(-c4ccccc4)c3)cc2O)c1Oc1ccccc1F
AC50 [8]: 8.91 µM (inconclusive)

Oc1ccc(Br)cc1Cn1nnc2ccccc21
CC50 [3]: 30 µM (active)

COc1cc(CN2CCN(Cc3ccc(C(F)(F)F)cc3)CC2)cc(OC)c1OC
IC50 [9]: 122 µM (active)

O=C(NC1CCCC1)c1ccc([N+](=O)[O-])s1
EC50 [1]: 5.25 µM (active)
EC50 [2]: 0.546 µM (active)

COc1ccc(CCNCc2ccccc2)cc1
IC50 [9]: 134 µM (active)

COCCn1c(=O)c(-c2cccs2)nc2cnc(OC)nc21
AC50 [4]: 39.8 µM (inconclusive)
AC50 ([5]; read-out: AC50): 20 µM (inconclusive)

COc1cccc([C@@H]2Oc3ccc(OC)cc3/C(=N/O[C@@H](C)CN3CCCc4nc(C)c(C)cc43)[C@@H]2O)c1
AC50 [4]: 2 µM (inconclusive)
AC50 ([5]; read-out: AC50): 0.251 µM (inconclusive)

COc1ccc(NC(=O)c2nc[nH]n2)cc1
AC50 [4]: 0.708 µM (inconclusive)
AC50 ([5]; read-out: AC50): 31.6 µM (inconclusive)

OC1CNc2c(ccc3ccccc23)C1 (stereo not given)
IC50 [9]: 18.4 µM (active)

COc1ccccc1CNC(=O)C[C@@H]1C[C@H]2c3cc(N(C)C)ccc3O[C@H]2[C@H](CO)O1
IC50 [9]: 153 µM (active)

COc1cc(/C=N/N=C2/SCC(=O)N2c2ccc(O)cc2)ccc1O
IC50 [9]: 65 µM (active)

C/C(CC(=O)NC1CCCC1)=N\NC(=O)Cc1cccs1
AC50 [8]: 12.6 µM (inconclusive)

CCN1CCN(c2ccc(/N=C/c3ccc(O)cc3O)cc2)CC1
IC50 [9]: 28 µM (active)

O=C(CCC(=O)Nc1ccc(F)cc1)N/N=C/c1ccc(O)cc1
IC50 [9]: 62.8 µM (active)

Cc1ccc(S(=O)(=O)Nc2ccc(NC(=O)CN3CCCCC3)c(Cl)c2)cc1
CC50 [3]: 24.8 µM (active)
